Earlier results as cited in US8541178B2, “Analysis of antibody drug conjugates by bead-based affinity capture and mass spectrometry” (Genentech, Inc., priority 2008, dated 2013).

Settings: more cytotoxic than conventional cancer chemotherapeutic agents

Structure (SMILES): COc1cc2cc(c1Cl)N(C)C(=O)C[C@H](OC(=O)[C@H](C)N(C)C(C)=O)[C@]1(C)O[C@H]1[C@H](C)[C@@H]1C[C@@](O)(NC(=O)O1)[C@H](OC)/C=C/C=C(\C)C2 [Maytansine]
- Cytotoxicity relative to methotrexate, daunorubicin, and vincristine: 100- to 1000 fold
